Results published in patent publication US10183936B2, “Hepatitis B core protein allosteric modulators” (priority 2014, dated 2019).

Key:
[1] = system: HBV viral production in AD38 cells; test: Viral load production in AD38 cells by quantitative PCR of the HBV core sequence in supernatant; assay type: cell-based; details: Hepatitis B virus, 144 h; 10 μM compound, 6 days at 37° C., viral load in supernatant compared against DMSO control wells; read-out: AD38 Viral Load (CpAM/DMSO %) at 10 μM
In short: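 AD38 cells seeded at 50,000/well, treated 6 days at 37° C with compound added as 10× solution in 10% DMSO. HBV core sequence in clarified supernatant quantified by TaqMan qPCR against known standards; viral load compared with DMSO control wells.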

[2] = system: AD38 cells; test: Viability of AD38 cells (Promega CellTiter-Glo) at the end of compound treatment; assay type: cell-based; details: 10 μM compound, 6 days, luminescence normalized against DMSO control wells (controls being 100%)
In short: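 AD38 cells seeded at 50,000/well received compound from a 10× solution in 10% DMSO and were incubated 6 days at 37° C. Viability was then read by CellTiter-Glo luminescence in tetracycline-free medium with 2% FBS and 1% DMSO, normalized to DMSO control wells (100%) and reported as percent viability.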

| SMILES | activity at 10 µM [1] [%] | AD38 Viability Normalized Result (CPAM/DMSO %) at 10 μM [2] [%] |
| --- | --- | --- |
| O=C(Nc1cccc(-c2ccccc2)c1)c1ccc2c(c1)NC(=O)c1ccccc1S2 [Compound 1445] | 24 | 38 |
| O=C(Nc1cccc(-c2ccccc2)c1)c1ccc2c(c1)NC(=O)c1cc(F)ccc1S2 [Compound 1333] | 20 | 73 |
| O=C(Nc1cccc(-c2cccnc2)c1)c1ccc2c(c1)NC(=O)c1ccccc1S2(=O)=O [Compound 1629] | 3 | 95 |
| O=C(NCC1CCC1)c1ccc2c(c1)NC(=O)c1ccccc1S2 [Compound 1174] | 35 | 109 |
| O=C(NCCc1cccnc1)c1ccc2c(c1)NC(=O)c1ccccc1N2Cc1ccccc1 [Compound 1475] | 47 | 107 |
| CN1C(=O)c2ccccc2Sc2ccc(C(=O)NCc3cncnc3)cc21 [Compound 1574] | 78 | 109 |
| O=C(NCc1cnc(-c2ccccc2)nc1)c1ccc2c(c1)NC(=O)c1ccccc1S2(=O)=O [Compound 1635] | 1 | 93 |
| Cc1nnc(CNC(=O)c2ccc3c(c2)NC(=O)c2ccccc2S3)o1 [Compound 1578] | 33 | 100 |
| O=C(NCCc1ccc(-c2cnn[nH]2)cc1)c1ccc2c(c1)NC(=O)c1ccccc1S2 [Compound 1291] | 1 | 102 |
| O=C1Nc2cc(S(=O)(=O)NCCc3cncnc3)ccc2Sc2ccccc21 [Compound 1597] | 64 | 87 |
| O=C(NCCc1ccc(-c2ccccc2)cc1)c1ccc2c(c1)NC(=O)c1ccccc1S2(=O)=O [Compound 1618] | 0 | 44 |
| CCN1c2ccc(C(=O)NCCc3cncnc3)cc2NC(=O)c2ccccc21 [Compound 1565] | 4 | 103 |
| CN(C)S(=O)(=O)c1ccc(CCNC(=O)c2ccc3c(c2)NC(=O)c2ccc(F)cc2S3)cc1 [Compound 1387] | 2 | 78 |
| O=C(Nc1ccc(F)cc1F)c1ccc2c(c1)NC(=O)c1cc(F)ccc1S2 [Compound 1318] | 14 | 70 |
| O=C(Nc1ccncc1)c1ccc2c(c1)NC(=O)c1ccc(F)cc1S2 [Compound 1366] | 12 | 93 |
| O=C1Nc2c(cc(F)c(C(=O)NCCc3cncnc3)c2F)Sc2ccccc21 [Compound 1562] | 25 | 89 |
| O=C(NCCc1cnc(-c2ccccc2)nc1)c1ccc2c(c1)NC(=O)c1cc(F)ccc1S2 [Compound 1343] | 8 | 91 |
| O=C(Nc1ncc(-c2ccccc2)o1)c1ccc2c(c1)NC(=O)c1cc(F)ccc1S2 [Compound 1480] | 72 | 95 |
| NC(=O)c1ccc2c(c1)Sc1ccc(C(=O)NCCc3ccccc3)cc1NC2=O [Compound 1279] | 55 | 84 |
| Cc1ccccc1CCNC(=O)c1ccc2c(c1)NC(=O)c1ccccc1S2 [Compound 1158] | 37 | 120 |
| O=C(Nc1ccc(Cl)cn1)c1ccc2c(c1)NC(=O)c1cc(F)ccc1S2 [Compound 1338] | 70 | 118 |
| O=C(NCCc1ccccc1)c1ccc2c(c1)NC(=O)c1ccccc1S2 [Compound 1104] | 1 | 85 |
| O=C(NCCc1cncnc1)c1ccc2c(c1)NC(=O)c1cccc(F)c1S2 [Compound 1409] | 4 | 83 |
| O=C(NCCc1cnco1)c1ccc2c(c1)NC(=O)c1ccccc1[S+]2[O-] (stereo not drawn) [Compound 1485] | 30 | 96 |
| O=C(Nc1ncc(Cl)s1)c1ccc2c(c1)NC(=O)c1cc(F)ccc1S2 [Compound 1443] | 64 | 95 |
| O=C(NCCc1cncs1)c1cc2c(cc1F)Sc1ccccc1C(=O)N2 [Compound 1558] | 51 | 88 |
| O=C(NCc1ccc(-c2ccccc2)cc1)c1ccc2c(c1)NC(=O)c1ccccc1S2 [Compound 1112] | 4 | 73 |
